Reference: patent publication US20130131075A1, “NEW COMPOUNDS” (Boehringer Ingelheim International GmbH, priority 2009, published 2013)

Target: T1, cynomolgus BK1-receptor (Macaca fascicularis, UniProt Q3BCU0)
T1 construct: expressed in transfected cells; host or cells: CHO cells (homogenate)
T1 sequence (Q3BCU0 1-352): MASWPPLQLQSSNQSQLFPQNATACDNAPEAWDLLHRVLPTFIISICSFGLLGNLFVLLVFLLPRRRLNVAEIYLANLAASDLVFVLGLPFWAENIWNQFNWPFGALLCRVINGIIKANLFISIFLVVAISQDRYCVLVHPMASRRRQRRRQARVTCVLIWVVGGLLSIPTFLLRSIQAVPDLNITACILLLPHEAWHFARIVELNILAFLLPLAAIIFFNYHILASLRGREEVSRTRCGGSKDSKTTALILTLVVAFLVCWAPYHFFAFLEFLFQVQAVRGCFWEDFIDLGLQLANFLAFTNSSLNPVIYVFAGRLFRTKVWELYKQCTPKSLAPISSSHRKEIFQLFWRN
Experiment: cynoBK1-receptor binding assay
Settings: CHO cells expressing cynomolgus BK1-receptor, radioligand kallidine (DesArg10,Leu9); for inhibition at 10 µM: at 10 μgmol/L
Procedure, shortened: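 Ki derived by non-linear fitting of concentration-binding curves. Test compound competed against 0.5 to 5.0 nM tritiated kallidine (DesArg10,Leu9) on cynomolgus BK1-CHO cell homogenate (50 to 250 μg protein/assay) for 60-180 minutes at ambient temperature, then filtered. 1.0 μM kallidine (DesArg10) set non-specific binding.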

Structure (SMILES)	inhibition at 10 µM	Ki
O=C(NC1(C(=O)NCc2ccc(Nc3ccc(F)cc3Cl)cn2)CC1)c1cncnc1 [(190)]	91%	
O=C(NC1(C(=O)NCc2ccc(Nc3c(F)cc(Br)cc3Cl)cn2)CC1)c1cncnc1 [(325)]		374 nM
CN(C)c1ccc(C(=O)NC2(C(=O)NCc3ccc(Nc4ccc(Cl)cc4C(F)(F)F)cn3)CC2)cn1 [(263)]		485 nM
CC(C(=O)N[C@@]1(C(=O)NCc2ccc(Nc3ccccc3C(F)(F)F)cc2)CCOC1)C(F)(F)F (stereo partly drawn) [(91)]	100%	
COCC(=O)NC1(C(=O)NCc2ccc(Nc3ccccc3C(F)(F)F)cc2)CC1 [(14)]	84%	
Cc1ncc(C(=O)NC2(C(=O)NCc3ncc(Nc4ccc(F)cc4C(F)(F)F)cc3F)CC2)cn1 [(298)]		0.7 nM
O=C(NC1(C(=O)NCc2ccc(Nc3ccc(F)cc3C(F)(F)F)cn2)CC1)c1cnc(C(F)(F)F)nc1 [(246)]		21 nM
O=C(N[C@@]1(C(=O)NCc2ccc(Nc3ccccc3C(F)(F)F)cc2)CCOC1)c1cncc(O)c1 [(87)]	112%	
CCC(=O)NC1(C(=O)NCc2ccc(Nc3ccccc3C(F)(F)F)cc2)CC1 [(13)]	101%	
O=C1CCC(NC(=O)c2cncnc2)(C(=O)NCc2ccc(Nc3ccccc3C(F)(F)F)cn2)C1 (stereo not drawn) [(193)]	101%	
CNc1ncc(C(=O)N[C@@]2(C(=O)NCc3ncc(Nc4c(F)cccc4C(F)(F)F)cc3Cl)CCOC2)cn1 [(241)]		68 nM
CNc1ncc(C(=O)NC2(C(=O)NCc3ncc(Nc4c(F)cccc4C(F)(F)F)cc3F)CC2)cn1 [(133)]	101%	
O=C(N[C@@]1(C(=O)NCc2ccc(Nc3ccccc3C(F)(F)F)cc2)CCOC1)c1ccnc(O)c1 [(86)]	108%	100 nM
Cc1ncc(C(=O)N[C@@]2(C(=O)NCc3ncc(Nc4ccc(Cl)cc4C(F)(F)F)cc3C)CCOC2)cn1 [(345)]		17 nM
O=C(NC1(C(=O)NCc2ccc(Nc3ccc(Cl)cc3C(F)(F)F)cn2)CC1)c1cncnc1 [(55)]	108%	3.3 nM
O=C(N[C@@]1(C(=O)NCc2ccc(Nc3ccccc3C(F)(F)F)cc2)CCOC1)c1ccnc(Cl)c1 [(61)]	97%	> 500 nM
O=C(N[C@@]1(C(=O)NCc2ccc(Nc3ccc(F)cc3C(F)(F)F)cc2)CCOC1)c1cnc2cc[nH]c2c1 [(365)]		376 nM
CNc1cncc(C(=O)N[C@@]2(C(=O)NCc3ncc(Nc4ccc(F)cc4C(F)(F)F)cc3Cl)CCOC2)c1 [(269)]		47 nM
O=C(NC1(C(=O)NCc2ccc(Nc3ccccc3C(F)(F)F)cc2)CC1)c1ccno1 [(24)]	107%	
Cc1ncc(C(=O)NC2(C(=O)NCc3ccc(Nc4ccccc4C(F)(F)F)cc3F)CC2)cn1 [(294)]		1.2 nM

Structure (SMILES)	inhibition at 10 µM	Ki
CCNc1ncc(C(=O)N[C@@]2(C(=O)NCc3ccc(Nc4ccc(F)cc4C(F)(F)F)cc3)CCOC2)cn1 [(328)]		33 nM
O=C(CC(F)(F)F)N[C@@]1(C(=O)NCc2ncc(Nc3ccc(F)cc3C(F)(F)F)cc2Cl)CCOC1 [(225)]		68 nM
Cc1ncc(C(=O)N[C@@]2(C(=O)NCc3ccc(Nc4ccc(F)cc4C(F)(F)F)cc3)CCOC2)cn1 [(288)]		9.1 nM
O=C(N[C@@]1(C(=O)NCc2ncc(Nc3ccc(F)cc3C(F)(F)F)cc2Cl)CCOC1)c1cncnc1 [(216)]		7.8 nM
O=C(NC1(C(=O)NCc2ccc(Nc3ccc(Cl)cc3C(F)(F)F)cn2)CC1)c1ccc2[nH]cnc2c1 [(266)]		78 nM
Nc1cncc(C(=O)N[C@@]2(C(=O)NCc3ncc(Nc4ccccc4C(F)(F)F)cc3F)CCOC2)c1 [(320)]		19 nM
O=C(N[C@@]1(C(=O)NCc2ccc(Nc3ccccc3C(F)(F)F)cc2)CCOC1)c1cncnc1 [(127)]	108%	
Cc1cncc(C(=O)N[C@@]2(C(=O)NCc3ccc(Nc4ccc(F)cc4C(F)(F)F)cc3)CCOC2)c1 [(308)]		427 nM
O=C(NC1(C(=O)NCc2ccc(Nc3ccc(Cl)cc3C(F)(F)F)cn2)CC1)C(F)(F)F [(362)]		101 nM
O=C(CC1CC1)NC1(C(=O)NCc2ccc(Nc3ccccc3C(F)(F)F)cc2)CC1 [(19)]	96%	
O=C(N[C@@]1(C(=O)NCc2ccc(Nc3ccccc3C(F)(F)F)cc2)CCOC1)c1cc(O)cc(O)c1 [(102)]	105%	87 nM
CNc1cncc(C(=O)NC2(C(=O)NCc3ccc(Nc4ccc(Cl)cc4C(F)(F)F)cn3)CC2)c1 [(280)]		25 nM
CNc1cncc(C(=O)NC2(C(=O)NCc3ccc(Nc4ccc(F)cc4C(F)(F)F)cn3)CC2)c1 [(270)]		51 nM
N#Cc1cc(Cl)ccc1Nc1ccc(CNC(=O)C2(NC(=O)c3cncnc3)CC2)cc1 [(162)]	104%	17 nM
O=C(NC1(C(=O)NCc2ccc(Nc3c(F)cccc3C(F)(F)F)cn2)CC1)c1cncnc1 [(44)]	109%	7 nM
CNc1ncc(C(=O)NC2(C(=O)NCc3ccc(Nc4ccc(Cl)cc4C(F)(F)F)cn3)CC2)cn1 [(145)]	99%	2.8 nM
Nc1cncc(C(=O)N[C@@]2(C(=O)NCc3ncc(Nc4ccc(Cl)cc4C(F)(F)F)cc3Cl)CCOC2)c1 [(285)]		27 nM
CNc1cncc(C(=O)NC2(C(=O)NCc3ncc(Nc4c(F)cccc4C(F)(F)F)cc3F)CC2)c1 [(272)]		35 nM
COc1cncc(C(=O)N[C@@]2(C(=O)NCc3ccc(Nc4ccc(Cl)cc4C(F)(F)F)cc3)CCOC2)c1 [(337)]		312 nM
CNc1cncc(C(=O)N[C@@]2(C(=O)NCc3ccc(Nc4ccc(F)cc4C(F)(F)F)cn3)CCOC2)c1 [(311)]		349 nM

Structure (SMILES)	inhibition at 10 µM	Ki
Cn1ncc(C(=O)NC2(C(=O)NCc3ccc(Nc4ccc(F)cc4C(F)(F)F)cn3)CC2)cc1=O [(221)]		13 nM
CC(NC(=O)C1(NC(=O)c2cncnc2)CC1)c1ncc(Nc2ccc(Cl)cc2C(F)(F)F)cc1F (stereo not drawn) [(203)]		1.9 nM
O=C(CC(F)(F)F)NC1(C(=O)NCc2ccc(Nc3ccc(F)cc3C(F)(F)F)cc2)CC1 [(30)]	111%	13 nM
Cc1ncc(C(=O)NC2(C(=O)NCc3ccc(Nc4ccc(Cl)cc4C(F)F)cn3)CC2)cn1 [(386)]		15 nM
Nc1ncc(C(=O)NC2(C(=O)NCc3ccc(Nc4ccc(F)cc4C(F)(F)F)cn3)CC2)o1 [(169)]	90%	292 nM
O=C(NC1(C(=O)NCc2ccc(Nc3ccc(Br)cc3C(F)(F)F)cn2)CC1)c1cncs1 [(172)]	100%	9.8 nM
O=C(N[C@@]1(C(=O)NCc2ccc(Nc3ccc(Cl)cc3C(F)(F)F)cc2)CCOC1)c1cncs1 [(336)]		567 nM
Cc1ncc(C(=O)N[C@@]2(C(=O)NCc3ncc(Nc4ccccc4C(F)(F)F)cc3Cl)CCOC2)cn1 [(292)]		7.2 nM
CCNc1ccc(C(=O)NC2(C(=O)NCc3ccc(Nc4ccc(Cl)cc4C(F)(F)F)cn3)CC2)cn1 [(329)]		24 nM
N#Cc1ccc(Nc2ccc(CNC(=O)C3(NC(=O)c4cncnc4)CC3)nc2)c(C(F)(F)F)c1 [(197)]	81%	> 500 nM
O=C(N[C@@]1(C(=O)NCc2ccc(Nc3ccc(F)cc3C(F)(F)F)cn2)CCOC1)c1cncnc1 [(43)]	94%	36 nM
O=C(NC1(C(=O)NCc2ccc(Nc3ccc(Cl)cc3Cl)cn2)CC1)c1cncnc1 [(166)]	104%	45 nM
O=C(N[C@@]1(C(=O)NCc2ccc(Nc3ccccc3C(F)(F)F)cc2)CCOC1)c1cnco1 [(85)]	93%	
O=C1CCC(C(=O)N[C@@]2(C(=O)NCc3ccc(Nc4ccccc4C(F)(F)F)cc3)CCOC2)CN1 (stereo partly drawn) [(76)]	80%	
O=C(NC1(C(=O)NCc2ccc(Nc3ccc(Cl)cc3C(F)(F)F)cn2)CC1)c1cnc(O)nc1 [(350)]		43 nM
Nc1ccc(C(=O)N[C@@]2(C(=O)NCc3ncc(Nc4ccc(Cl)cc4C(F)(F)F)cc3Cl)CCOC2)cn1 [(297)]		59 nM
CN(C)c1ncc(C(=O)NC2(C(=O)NCc3ccc(Nc4ccc(Br)cc4C(F)(F)F)cn3)CC2)cn1 [(175)]	96%	63 nM
Nc1cncc(C(=O)N[C@@]2(C(=O)NCc3ccc(Nc4ccc(F)cc4C(F)(F)F)cc3F)CCOC2)c1 [(231)]		4.2 nM
